What was measured:
Format in all cases: cell-based
NCI-H1299 = test: MTS cell kill, NCI-H1299
Description: (§1) Cells were maintained at 37° C., 5% CO2 in DMEM media supplemented with 1% fetal bovine serum, penicillin/streptomycin and fungizone (Invitrogen). Cells were seeded into 96-well tissue culture plates at 3000 per well and cultured at 37° C. for 18 hours. Test compounds were dissolved and diluted to 300× in DMSO then diluted 1:40 in DMEM.

KATO III = test: MTS assay, KATO III
Description: as §1

DLD-1 = test: MTS cell kill, DLD-1
Description: as §1

PACA-2 = test: MTS cell kill, PACA-2
Description: as §1

MDA-MB-231 = test: MTS cell kill, MDA-MB-231
Description: as §1
Note: test concentration or dose not given here.

| SMILES | MTS cell kill data (% inhibition) NCI-H1299 (NCI-H1299) | MTS cell kill data (% inhibition) KATO III (KATO III) | MTS cell kill data (% inhibition) DLD-1 (DLD-1) | MTS cell kill data (% inhibition) PACA-2 (PACA-2) | MTS cell kill data (% inhibition) MDA-MB-231 (MDA-MB-231) |
| --- | --- | --- | --- | --- | --- |
| CN1CCN(CCCNc2ncc3c(n2)-c2ccccc2C(c2ccc(NCc4cccc5cc[nH]c45)cc2)C3)CC1 (stereo not shown) [Example 573, 6-{4-[(1H-indol-7-ylmethyl)amino]phenyl}-N-[3-(4-methylpiperazin-1-yl)propyl]-5,6-dihydrobenzo[h]quinazolin-2-amine] | A (A = 80-100% inhibition) | A (A = 80-100% inhibition) | A (A = 80-100% inhibition) | A (A = 80-100% inhibition) | A (A = 80-100% inhibition) |
| CN1CCN(CCCNc2ncc3c(n2)-c2ccccc2C(c2ccc(NCc4ccccc4F)cc2)C3)CC1 (stereo not shown) [Example 574, 6-{4-[(2-fluorobenzyl)amino]phenyl}-N-[3-(4-methylpiperazin-1-yl)propyl]-5,6-dihydrobenzo[h]quinazolin-2-amine] | A (A = 80-100% inhibition) | A (A = 80-100% inhibition) | A (A = 80-100% inhibition) | A (A = 80-100% inhibition) | A (A = 80-100% inhibition) |
| Cc1ccc(F)c(CNc2ccc(C3Cc4cnc(NCCCN5CCN(C)CC5)nc4-c4ccccc43)cc2)c1 (stereo not shown) [Example 570, 6-{4-[(2-fluoro-5-methylbenzyl)amino]phenyl}-N-[3-(4-methylpiperazin-1-yl)propyl]-5,6-dihydrobenzo[h]quinazolin-2-amine] | A (A = 80-100% inhibition) | A (A = 80-100% inhibition) | A (A = 80-100% inhibition) | A (A = 80-100% inhibition) | A (A = 80-100% inhibition) |
| N#Cc1cccc(NC(=O)N2CCC3(CC2)Cc2cnc(Nc4ccc(N5CCNCC5)cc4)nc2-c2ccccc23)c1 [Example 412, N-(3-cyanophenyl)-2-[(4-piperazin-1-ylphenyl)amino]-1′H,5H-spiro[benzo[h]quinazoline-6,4′-piperidine]-1′-carboxamide] | A (A = 80-100% inhibition) | A (A = 80-100% inhibition) | A (A = 80-100% inhibition) | A (A = 80-100% inhibition) | A (A = 80-100% inhibition) |
| CNc1ncc2c(n1)-c1ccccc1C1(CCN(C(=O)Nc3ccc(Oc4ccccc4)cc3)CC1)C2 [Example 406, 2-(methylamino)-N-(4-phenoxyphenyl)-1′H,5H-spiro[benzo[h]quinazoline-6,4′-piperidine]-1′-carboxamide] | A (A = 80-100% inhibition) | A (A = 80-100% inhibition) | A (A = 80-100% inhibition) | A (A = 80-100% inhibition) | A (A = 80-100% inhibition) |
| N#Cc1cccc(NC(=O)N2CCC3(CC2)Cc2cnc(Nc4ccc(CO)cc4)nc2-c2ccccc23)c1 [Example 414, N-(3-cyanophenyl)-2-{[4-(hydroxymethyl)phenyl]amino}-1′H,5H-spiro[benzo[h]quinazoline-6,4′-piperidine]-1′-carboxamide] | B (B = 50-79% inhibition) | A (A = 80-100% inhibition) | B (B = 50-79% inhibition) | A (A = 80-100% inhibition) | B (B = 50-79% inhibition) |
| N#Cc1cccc(NC(=O)N2CCC3(CC2)Cc2cnc(Nc4ccc(CCO)cc4)nc2-c2ccccc23)c1 [Example 413, N-(3-cyanophenyl)-2-{[4-(2-hydroxyethyl)phenyl]amino}-1′H,5H-spiro[benzo[h]quinazoline-6,4′-piperidine]-1′-carboxamide] | B (B = 50-79% inhibition) | A (A = 80-100% inhibition) | A (A = 80-100% inhibition) | A (A = 80-100% inhibition) | A (A = 80-100% inhibition) |
| Cc1ccc(CNc2ccc(C3Cc4cnc(NCCCN5CCN(C)CC5)nc4-c4ccccc43)cc2)c(C)c1 (stereo not shown) [Example 571, 6-{4-[(2,4-dimethylbenzyl)amino]phenyl}-N-[3-(4-methylpiperazin-1-yl)propyl]-5,6-dihydrobenzo[h]quinazolin-2-amine] | A (A = 80-100% inhibition) | A (A = 80-100% inhibition) | A (A = 80-100% inhibition) | A (A = 80-100% inhibition) | A (A = 80-100% inhibition) |
| CNc1ncc2c(n1)-c1ccccc1C1(CCN(C(=O)Nc3ccc(C#N)cc3)CC1)C2 [Example 397, N-(4-cyanophenyl)-2-(methylamino)-1′H,5H-spiro[benzo[h]quinazoline-6,4′-piperidine]-1′-carboxamide] | C (C = <50% inhibition) | A (A = 80-100% inhibition) | B (B = 50-79% inhibition) | A (A = 80-100% inhibition) | B (B = 50-79% inhibition) |
| CN1CCN(CCCNc2ncc3c(n2)-c2ccccc2C(c2ccc(NCc4ccc5c(c4)CCO5)cc2)C3)CC1 (stereo not shown) [Example 572, 6-{4-[(2,3-dihydro-1-benzofuran-5-ylmethyl)amino]phenyl}-N-[3-(4-methylpiperazin-1-yl)propyl]-5,6-dihydrobenzo[h]quinazolin-2-amine] | A (A = 80-100% inhibition) | A (A = 80-100% inhibition) | A (A = 80-100% inhibition) | A (A = 80-100% inhibition) | A (A = 80-100% inhibition) |
| CCCc1ccc(CNc2ccc(C3Cc4cnc(NCCCN5CCN(C)CC5)nc4-c4ccccc43)cc2)cc1 (stereo not shown) [Example 569, N-[3-(4-methylpiperazin-1-yl)propyl]-6-{4-[(4-propylbenzyl)amino]phenyl}-5,6-dihydrobenzo[h]quinazolin-2-amine] | A (A = 80-100% inhibition) | A (A = 80-100% inhibition) | A (A = 80-100% inhibition) | A (A = 80-100% inhibition) | A (A = 80-100% inhibition) |

Source: patent publication US8357694B2, “Substituted 5,6-dihydro-6-phenylbenzo[F]isoquinolin-2-amine compounds” (ArQule, Inc., priority 2008, dated 2013)
